Assays:
[1] = tested on: MLV(VSV-G Env) pseudotype particles; assay type: cell-based
[2] = tested on: MLV(VSV-G Env) particles that transduce a gfp-gene; assay type: cell-based
[3] = tested on: MLV(VSV-G Env) pseudotype particles; assay type: cell-based; remark: listed apart in the source
[4] = tested on: indicator cells (HEK293T expressing tPA-HA); settings: increasing inhibitor concentrations up to 1 mM; due to cytotoxic effects

Cc1cn([C@H]2C[C@H](N=[N+]=[N-])[C@@H](CO)O2)c(=O)[nH]c1=O [AZT]
cell populations after α-HA antibody staining [1]: just one (fluorescence positive) population
gfp fluorescence signal at the highest inhibitor concentration [2]: lowest fluorescence signal
fluorescence readout signal with increasing concentrations of the inhibitor [3]: increased signal intensities
readout signal at concentrations higher than the optimal concentration [3]: decreased readout signals
fluorescence signal of indicator cells in absence of any particles [4]: decreasing fluorescence intensities

Source: patent US20080233558A1, “Inhibitors of viral entry screening method” (priority 2005, published 2008)
